Reference: US20260306640A1, “TECHNOLOGIES TARGETING CELL STATES” (Auron Therapeutics, Inc., priority 2023, published 2026)

Molecular target: KAT2A (Homo sapiens, UniProt Q92830)
Test: KAT2A degradation, Western Blot (Jess), MOLM-13 cells
Type: cell-based
Parameters: degrader, Western blot
Details: MOLM-13 cells, KAT2A, 24 h, Western Blot, vs DMSO; read-out: KAT2A MOLM-13 DC50
Method: MOLM-13 cells or NCI-H1048 cells were used for Western Blot analysis of KAT2A degradation. KAT2B degradation can be measured in a similar manner with NCI-H1048 cells.
MOLM-13 cells were maintained at 37° C. in 5% CO2 and 90% humidity in RPMI 1640 supplemented with 20% fetal bovine serum (FBS) and 1× penicillin/streptomycin. Cells were plated in full media at 1-2 million cells/2 mL in a 6-well tissue culture treated plate with or without compounds for 24 h at 37° C. in 5% CO2.
MOLM-13 cells or NCI-H1048 cells were washed with PBS, then lysed with RIPA buffer containing 1×protease and phosphatase inhibitors (SantaCruz Biotechnologies Cat #sc-24948A). Protein was isolated by centrifugation at 12,000×g for 10 minutes at 4° C. and supernatant was collected. Protein was quantified via Bradford assay. Samples were diluted to 4 μg lysate in 16 μL RIPA buffer and then 4 μL of Jess Sample Buffer. Samples were heated at 95° C. for 5 minutes. Samples were loaded onto 12-230 kDa Jess™ Separation Module, 8×25 capillary cartridges (SM-W004, Biotechne). Antibodies loaded were: Primary antibody for KAT2A (GCN5L2 (C26A10) Rabbit mAb (3305, CST)) and for KAT2B (PCAF (C14G9)) Rabbit mAb (3378, CST) at 1:1000 and Anti-Rabbit Detection Module for Jess™ (Cat No #DM-001, Biotechne). Signal was detected by chemiluminescence.
DC50 values were determined from percent reduction of protein as compared to the DMSO control.

KAT2A, sequence (Q92830 whole entry): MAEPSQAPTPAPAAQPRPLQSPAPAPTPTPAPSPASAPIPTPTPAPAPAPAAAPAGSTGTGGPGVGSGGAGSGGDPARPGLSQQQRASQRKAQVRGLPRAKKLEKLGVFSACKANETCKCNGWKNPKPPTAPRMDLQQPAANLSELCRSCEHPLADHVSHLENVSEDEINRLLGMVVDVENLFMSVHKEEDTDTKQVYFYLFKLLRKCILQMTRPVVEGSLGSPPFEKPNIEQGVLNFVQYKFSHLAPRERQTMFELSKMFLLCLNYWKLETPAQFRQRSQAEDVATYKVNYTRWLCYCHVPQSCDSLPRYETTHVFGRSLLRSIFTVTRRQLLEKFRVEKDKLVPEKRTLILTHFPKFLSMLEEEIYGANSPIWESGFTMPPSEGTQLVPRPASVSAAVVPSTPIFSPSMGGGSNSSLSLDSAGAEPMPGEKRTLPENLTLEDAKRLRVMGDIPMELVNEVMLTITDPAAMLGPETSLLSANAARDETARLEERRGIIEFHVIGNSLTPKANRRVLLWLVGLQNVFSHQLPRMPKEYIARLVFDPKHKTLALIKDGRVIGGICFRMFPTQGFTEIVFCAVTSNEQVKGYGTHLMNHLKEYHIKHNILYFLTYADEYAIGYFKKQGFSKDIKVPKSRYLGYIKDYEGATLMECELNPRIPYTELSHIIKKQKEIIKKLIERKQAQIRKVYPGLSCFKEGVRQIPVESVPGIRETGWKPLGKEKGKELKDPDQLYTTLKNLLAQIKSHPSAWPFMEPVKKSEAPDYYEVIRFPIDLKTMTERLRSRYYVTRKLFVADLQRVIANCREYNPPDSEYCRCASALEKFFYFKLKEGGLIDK

First: CN1C[C@H](Nc2cnn(C)c(=O)c2Br)C[C@H](c2ccc(C(=O)OCC3CCN(c4cccc5c4C(=O)N(C4CCC(=O)NC4=O)C5=O)CC3)cc2)C1 (stereo partly shown) [Compound 32]
Second: CN1C[C@H](Nc2cnn(C)c(=O)c2Br)C[C@H](c2ccc(C(=O)N3CCC(COc4cccc5c4C(=O)N(C4CCC(=O)NC4=O)C5=O)CC3)cc2)C1 (stereo partly shown) [Compound 45]
The DC50 of the first is higher: 1 to 30 nM for the first, < 1 nM for the second.

`CN1C[C@H](Nc2cnn(C)c(=O)c2Br)C[C@H](c2ccc(C(=O)N(C)Cc3ccc(Oc4cccc5c4C(=O)N(C4CCC(=O)NC4=O)C5=O)cc3)cc2)C1` (stereo partly shown) [Compound 33] and `CN1C[C@H](Nc2cnn(C)c(=O)c2Br)C[C@H](c2ccc(C(=O)N(C)Cc3ccc(COc4cccc5c4C(=O)N(C4CCC(=O)NC4=O)C5=O)cc3)cc2)C1` (stereo partly shown) [Compound 55] cannot be ordered by DC50: < 1 nM for the first, < 1 nM for the second.

`CN1C[C@H](Nc2cnn(C)c(=O)c2Br)C[C@H](c2ccc(C(=O)N(C)c3cccc(Oc4ccc5c(c4)C(=O)N(C4CCC(=O)NC4=O)C5=O)c3)cc2)C1` (stereo partly shown) [Compound 34] and `CN1C[C@H](Nc2cnn(C)c(=O)c2Br)C[C@H](c2ccc(C(=O)N(C)CCOc3cccc4c3C(=O)N(C3CCC(=O)NC3=O)C4=O)cc2)C1` (stereo partly shown) [Compound 44] fall in the same range of DC50: 1 to 30 nM for the first, 1 to 30 nM for the second.

Compared with `CN1C[C@H](Nc2cnn(C)c(=O)c2Br)C[C@H](c2ccc(CNCC3CCC(COc4cccc5c4C(=O)N(C4CCC(=O)NC4=O)C5=O)CC3)cc2)C1` (stereo partly shown) [Compound 35], `CN1C[C@H](Nc2cnn(C)c(=O)c2Br)C[C@H](c2ccc(COc3cccc4c3C(=O)N(C3CCC(=O)NC3=O)C4=O)cc2)C1` (stereo partly shown) [Compound 38] is higher in DC50: < 1 nM for the first, 1 to 30 nM for the second.

`CN1C[C@H](Nc2cnn(C)c(=O)c2Br)C[C@H](c2ccc(CN3CCC(Oc4cccc5c4C(=O)N(C4CCC(=O)NC4=O)C5=O)CC3)cc2)C1` (stereo partly shown) [Compound 36] and `CN1C[C@H](Nc2cnn(C)c(=O)c2Br)C[C@H](c2ccc(CN3CC(Oc4cccc5c4C(=O)N(C4CCC(=O)NC4=O)C5=O)C3)cc2)C1` (stereo partly shown) [Compound 64] fall in the same range of DC50: 1 to 30 nM for the first, 1 to 30 nM for the second.

`CN1C[C@H](Nc2cnn(C)c(=O)c2Br)C[C@H](c2ccc(CN3CC4(C3)CN(c3ccc5c(c3)CN(C3CCC(=O)NC3=O)C5=O)C4)cc2)C1` (stereo partly shown) [Compound 37] and `CN1C[C@H](Nc2cnn(C)c(=O)c2Br)C[C@H](c2ccc(CN3CCC(c4ccc5c(c4)CN(C4CCC(=O)NC4=O)C5=O)CC3)cc2)C1` (stereo partly shown) [Compound 66] cannot be ordered by DC50: < 1 nM for the first, < 1 nM for the second.

First: CN1C[C@H](Nc2cnn(C)c(=O)c2Br)C[C@H](c2ccc(C(=O)NCCCCCCOc3cccc4c3C(=O)N(C3CCC(=O)NC3=O)C4=O)cc2)C1 (stereo partly shown) [Compound 41]
Second: CN1C[C@H](Nc2cnn(C)c(=O)c2Br)C[C@H](c2ccc(C(=O)NCCCCCCCCOc3cccc4c3C(=O)N(C3CCC(=O)NC3=O)C4=O)cc2)C1 (stereo partly shown) [Compound 42]
The DC50 of the first is lower: < 1 nM for the first, 1 to 30 nM for the second.

First: CN1C[C@H](Nc2cnn(C)c(=O)c2Br)C[C@H](c2ccc(C(=O)NCCOCCn3cc(COCCOc4cccc5c4C(=O)N(C4CCC(=O)NC4=O)C5=O)nn3)cc2)C1 (stereo partly shown) [Compound 43]
Second: CN1C[C@H](Nc2cnn(C)c(=O)c2Br)C[C@H](c2ccc(C(=O)N3CC(Oc4cccc5c4C(=O)N(C4CCC(=O)NC4=O)C5=O)C3)cc2)C1 (stereo partly shown) [Compound 62]
The DC50 of the first is higher: > 30 nM for the first, 1 to 30 nM for the second.

`CN1C[C@H](Nc2cnn(C)c(=O)c2Cl)C[C@H](c2ccc(C(=O)N3CCN(Cc4ccc(C(=O)Nc5cccc6c5C(=O)N(C5CCC(=O)NC5=O)C6=O)cc4)CC3)cc2)C1` (stereo partly shown) [Compound 46] and `CN1C[C@H](Nc2cnn(C)c(=O)c2Br)C[C@H](c2ccc(C(=O)N3CCN(Cc4cccc(C(=O)Nc5cccc6c5C(=O)N(C5CCC(=O)NC5=O)C6=O)c4)CC3)cc2)C1` (stereo partly shown) [Compound 57] fall in the same range of DC50: 1 to 30 nM for the first, 1 to 30 nM for the second.

`CN1C[C@H](Nc2nn(C)c(=O)c3cccnc23)C[C@H](c2ccc(C(=O)N3CCN(Cc4ccc(C(=O)Nc5cccc6c5C(=O)N(C5CCC(=O)NC5=O)C6=O)cc4)CC3)cc2)C1` (stereo partly shown) [Compound 47] and `CN1C[C@H](Nc2nn(C)c(=O)n(C)c2=O)C[C@H](c2ccc(C(=O)N3CCN(Cc4ccc(C(=O)Nc5cccc6c5C(=O)N(C5CCC(=O)NC5=O)C6=O)cc4)CC3)cc2)C1` (stereo partly shown) [Compound 56] cannot be ordered by DC50: > 30 nM for the first, > 30 nM for the second.

Compared with `CN(Cc1ccc(Oc2cccc3c2C(=O)N(C2CCC(=O)NC2=O)C3=O)cc1)Cc1ccc([C@H]2C[C@@H](Nc3cnn(C)c(=O)c3Br)CN(C)C2)cc1` (stereo partly shown) [Compound 48], `CN1C[C@H](Nc2cnn(C)c(=O)c2Br)C[C@H](c2ccc(CN(C)c3ccc(Oc4cccc5c4C(=O)N(C4CCC(=O)NC4=O)C5=O)cc3)cc2)C1` (stereo partly shown) [Compound 53] is higher in DC50: < 1 nM for the first, 1 to 30 nM for the second.

`CN1C[C@H](Nc2cnn(C)c(=O)c2Br)C[C@H](c2ccc(C(=O)N3CCN(Cc4ccc(Oc5cccc6c5C(=O)N(C5CCC(=O)NC5=O)C6=O)cc4)CC3)cc2)C1` (stereo partly shown) [Compound 49] and `CN1C[C@H](Nc2cnn(C)c(=O)c2Br)C[C@H](c2ccc(CN3CCN(Cc4ccc(Oc5cccc6c5C(=O)N(C5CCC(=O)NC5=O)C6=O)cc4)CC3)cc2)C1` (stereo partly shown) [Compound 50] cannot be ordered by DC50: < 1 nM for the first, < 1 nM for the second.

Compared with `CN1C[C@H](Nc2cnn(C)c(=O)c2Br)C[C@H](c2ccc(CN3CC4(C3)CN(c3cccc5c3C(=O)N(C3CCC(=O)NC3=O)C5=O)C4)cc2)C1` (stereo partly shown) [Compound 51], `CN1C[C@H](Nc2cnn(C)c(=O)c2Br)C[C@H](c2ccc(C(=O)N3CC4(CN(Cc5cccc6c5C(=O)N(C5CCC(=O)NC5=O)C6=O)C4)C3)cc2)C1` (stereo partly shown) [Compound 59] is lower in DC50: > 30 nM for the first, 1 to 30 nM for the second.

Compared with `CN1C[C@H](Nc2cnn(C)c(=O)c2Br)C[C@H](c2ccc(C(=O)N3CCN(Cc4cccc5c4C(=O)N(C4CCC(=O)NC4=O)C5=O)CC3)cc2)C1` (stereo partly shown) [Compound 52], `CN1C[C@H](Nc2cnn(C)c(=O)c2Br)C[C@H](c2ccc(CN3CCN(Cc4cccc5c4C(=O)N(C4CCC(=O)NC4=O)C5=O)CC3)cc2)C1` (stereo partly shown) [Compound 58] is higher in DC50: < 1 nM for the first, 1 to 30 nM for the second.

First: CN1C[C@H](Nc2cnn(C)c(=O)c2Br)C[C@H](c2ccc(C(=O)N3CCC(C#CCOc4ccc5c(c4)C(=O)N(C4CCC(=O)NC4=O)C5=O)CC3)cc2)C1 (stereo partly shown) [Compound 54]
Second: CN1C[C@H](Nc2cnn(C)c(=O)c2Br)C[C@H](c2ccc(C(=O)N3CC4(CN(Cc5ccc6c(c5)C(=O)N(C5CCC(=O)NC5=O)C6=O)C4)C3)cc2)C1 (stereo partly shown) [Compound 60]
The DC50 of the first is lower: < 1 nM for the first, 1 to 30 nM for the second.

First: CN1C[C@H](Nc2cnn(C)c(=O)c2Br)C[C@H](c2ccc(C(=O)N3CCN(Cc4ccc(C(=O)Nc5ccc6c(c5)C(=O)N(C5CCC(=O)NC5=O)C6=O)cc4)CC3)cc2)C1 (stereo partly shown) [Compound 61]
Second: CN1C[C@H](Nc2cnn(C)c(=O)c2Br)C[C@H](c2ccc(C(=O)N3CCN(Cc4ccc5c(c4)CN(C4CCC(=O)NC4=O)C5=O)CC3)cc2)C1 (stereo partly shown) [Compound 71]
The DC50 of the first is higher: 1 to 30 nM for the first, < 1 nM for the second.

`CN1C[C@H](Nc2cnn(C)c(=O)c2Br)C[C@H](c2ccc(C(=O)N3CCC(c4ccc5c(c4)CN(C4CCC(=O)NC4=O)C5=O)CC3)cc2)C1` (stereo partly shown) [Compound 63] and `CN1C[C@H](Nc2cnn(C)c(=O)c2Cl)C[C@H](c2ccc(CN3CCC(c4ccc5c(c4)CN(C4CCC(=O)NC4=O)C5=O)CC3)cc2)C1` (stereo partly shown) [Compound 70] cannot be ordered by DC50: < 1 nM for the first, < 1 nM for the second.

Compared with `CN1C[C@H](Nc2cnn(C)c(=O)c2Br)C[C@H](c2ccc(COc3ccc4c(c3)CN(C3CCC(=O)NC3=O)C4=O)cc2)C1` (stereo partly shown) [Compound 65], `CN1C[C@H](Nc2ccn(C)c(=O)c2Br)C[C@H](c2ccc(CN3CCC(c4ccc5c(c4)CN(C4CCC(=O)NC4=O)C5=O)CC3)cc2)C1` (stereo partly shown) [Compound 68] is lower in DC50: > 30 nM for the first, < 1 nM for the second.

For `CN1C[C@H](Nc2cnn(C)c(=O)c2Br)C[C@H](c2ccc(CN3CCN(c4ccc(C5CCC(=O)NC5=O)cc4)CC3)cc2)C1` (stereo partly shown) [Compound 69], the DC50 was < 1 nM.
